Source: PubChem BioAssay AID1918952 (Molecular Pharmacology Branch, DTP, NCI, 2023)

Tested on: LG0703-F948-PDC complex spheroid viability
Assay: Anticancer human tumor LG0703-F948-PDC patient-derived lung adenocarcinoma cell line growth inhibition
Settings: for IC50: curve of first compound; for viability, T/C: stronger effect = lower value
Outline: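 Drug combinations with the LSD1 inhibitor iadademstat tested on tumor cells co-cultured as spheroids with endothelial cells and mesenchymal stem cells. Concentrations descended in half-log increments from clinical Cmax or 10 microM.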
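Note: spheroids exposed to agents for seven days before readout.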
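Throughout, for viability, T/C: 100% = DMSO vehicle control wells as normalization base.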

Structure (SMILES): CC[C@@]1(O)C(=O)OCc2c1cc1n(c2=O)Cc2cc3c(CN(C)C)c(O)ccc3nc2-1 + NC1CCC(NC2CC2c2ccccc2)CC1
- IC50 (second compound 0.1 µM): > 100 nM
- IC50 (second compound 0.316 µM): > 100 nM
- IC50 (second compound 1 µM): > 100 nM
- IC50 (second compound 3.16 µM): > 100 nM
- IC50 (second compound 10 µM): > 100 nM
- viability, T/C (second compound 0.1 µM, first compound 0.000316 µM): 103%
- viability, T/C (second compound 0.1 µM, first compound 0.001 µM): 129%
- viability, T/C (second compound 0.1 µM, first compound 0.00316 µM): 110%
- viability, T/C (second compound 0.1 µM, first compound 0.01 µM): 87.4%
- viability, T/C (second compound 0.1 µM, first compound 0.0316 µM): 64.8%
- viability, T/C (second compound 0.1 µM, first compound 0.1 µM): 52.8%
- viability, T/C (second compound 0.316 µM, first compound 0.000316 µM): 117%
- viability, T/C (second compound 0.316 µM, first compound 0.001 µM): 111%
- viability, T/C (second compound 0.316 µM, first compound 0.00316 µM): 104%
- viability, T/C (second compound 0.316 µM, first compound 0.01 µM): 95.8%
- viability, T/C (second compound 0.316 µM, first compound 0.0316 µM): 78.2%
- viability, T/C (second compound 0.316 µM, first compound 0.1 µM): 63%
- viability, T/C (second compound 1 µM, first compound 0.000316 µM): 128%
- viability, T/C (second compound 1 µM, first compound 0.001 µM): 132%
- viability, T/C (second compound 1 µM, first compound 0.00316 µM): 122%
- viability, T/C (second compound 1 µM, first compound 0.01 µM): 101%
- viability, T/C (second compound 1 µM, first compound 0.0316 µM): 77.7%
- viability, T/C (second compound 1 µM, first compound 0.1 µM): 61.9%
- viability, T/C (second compound 3.16 µM, first compound 0.000316 µM): 110%
- viability, T/C (second compound 3.16 µM, first compound 0.001 µM): 134%
- viability, T/C (second compound 3.16 µM, first compound 0.00316 µM): 117%
- viability, T/C (second compound 3.16 µM, first compound 0.01 µM): 101%
- viability, T/C (second compound 3.16 µM, first compound 0.0316 µM): 98.4%
- viability, T/C (second compound 3.16 µM, first compound 0.1 µM): 69.6%
- viability, T/C (second compound 10 µM, first compound 0.000316 µM): 130%
- viability, T/C (second compound 10 µM, first compound 0.001 µM): 123%
- viability, T/C (second compound 10 µM, first compound 0.00316 µM): 115%
- viability, T/C (second compound 10 µM, first compound 0.01 µM): 96.6%
- viability, T/C (second compound 10 µM, first compound 0.0316 µM): 96.8%
- viability, T/C (second compound 10 µM, first compound 0.1 µM): 84.5%

Structure (SMILES): CCc1c2c(nc3ccc(O)cc13)-c1cc3c(c(=O)n1C2)COC(=O)[C@]3(O)CC + NC1CCC(NC2CC2c2ccccc2)CC1
- IC50 (second compound 0.1 µM): 1.31 nM
- IC50 (second compound 0.316 µM): 1.87 nM
- IC50 (second compound 1 µM): 1.89 nM
- IC50 (second compound 3.16 µM): 3.61 nM
- IC50 (second compound 10 µM): 5.11 nM
- viability, T/C (second compound 0.1 µM, first compound 0.000949 µM): 55.8%
- viability, T/C (second compound 0.1 µM, first compound 0.003 µM): 36.4%
- viability, T/C (second compound 0.1 µM, first compound 0.00949 µM): 23.9%
- viability, T/C (second compound 0.1 µM, first compound 0.03 µM): 15%
- viability, T/C (second compound 0.1 µM, first compound 0.0949 µM): 8.81%
- viability, T/C (second compound 0.1 µM, first compound 0.3 µM): 4.02%
- viability, T/C (second compound 0.316 µM, first compound 0.000949 µM): 63.7%
- viability, T/C (second compound 0.316 µM, first compound 0.003 µM): 40.2%
- viability, T/C (second compound 0.316 µM, first compound 0.00949 µM): 24.8%
- viability, T/C (second compound 0.316 µM, first compound 0.03 µM): 15.1%
- viability, T/C (second compound 0.316 µM, first compound 0.0949 µM): 7.91%
- viability, T/C (second compound 0.316 µM, first compound 0.3 µM): 3.79%
- viability, T/C (second compound 1 µM, first compound 0.000949 µM): 62.8%
- viability, T/C (second compound 1 µM, first compound 0.003 µM): 40.8%
- viability, T/C (second compound 1 µM, first compound 0.00949 µM): 27.6%
- viability, T/C (second compound 1 µM, first compound 0.03 µM): 15.9%
- viability, T/C (second compound 1 µM, first compound 0.0949 µM): 7.93%
- viability, T/C (second compound 1 µM, first compound 0.3 µM): 3.95%
- viability, T/C (second compound 3.16 µM, first compound 0.000949 µM): 64.8%
- viability, T/C (second compound 3.16 µM, first compound 0.003 µM): 52.5%
- viability, T/C (second compound 3.16 µM, first compound 0.00949 µM): 35.3%
- viability, T/C (second compound 3.16 µM, first compound 0.03 µM): 18.1%
- viability, T/C (second compound 3.16 µM, first compound 0.0949 µM): 7.91%
- viability, T/C (second compound 3.16 µM, first compound 0.3 µM): 4.52%
- viability, T/C (second compound 10 µM, first compound 0.000949 µM): 78.8%
- viability, T/C (second compound 10 µM, first compound 0.003 µM): 59%
- viability, T/C (second compound 10 µM, first compound 0.00949 µM): 39.6%
- viability, T/C (second compound 10 µM, first compound 0.03 µM): 19.9%
- viability, T/C (second compound 10 µM, first compound 0.0949 µM): 8.18%
- viability, T/C (second compound 10 µM, first compound 0.3 µM): 3.7%
